Earlier results as cited in patent US6511683B1, “Enchinacea supplement and method of manufacture” (Factors R & D Technologies Ltd., priority 1999, dated 2003).

How the values were obtained:
[1] = test system: granulocytes; settings: Awang et al.
[2] = test system: immune system; settings: Awang et al.

In the case of `O=C(/C=C/c1ccc(O)c(O)c1)O[C@@H](C(=O)O)[C@@H](OC(=O)/C=C/c1ccc(O)c(O)c1)C(=O)O` [cichoric acid, 2,3-o-di-caffeoyl-tartaric acid], the phagocytosis in granulocytes [1] is listed as “increase” and the “concentration that may stimulate the immune system” value [2] is listed as no less than 0.01 ppm.
